Read-outs that look alike come from different tables or passages of the source.

This note sets out measurements from patent US8466200B2, “2-adamantylurea derivatives as selective 11β-HSD1 inhibitors” (Merck Patent GmbH, priority 2005, dated 2013).

One data set deals with mouse 11-beta HSD1 (Mus musculus, UniProt P50172). Put plainly: 11 beta-HSD1 enzyme assay, mice liver microsome fractions. A general note: Liver microsomes are vesicles of endoplasmic reticulum, rich in cytochrome P450 enzymes.
The next data set addresses T1, human 11-beta HSD1 (Homo sapiens, UniProt P28845).
T1 construct: made in house; host or cells: E. coli
Put plainly: 11 beta-HSD1 enzyme assay (HTRF cortisol), human recombinant enzyme. As to conditions: read-out: Inhibition of human 11-beta HSD1 IC50. Format: biochemical.

Another data set has as its target rat 11-beta HSD1 (Rattus norvegicus, UniProt P16232). Put plainly: 11 beta-HSD1 enzyme assay, rat liver microsome fractions. Format: biochemical. As to conditions: read-out: Inhibition of rat 11-beta HSD1 IC50.
A further data set concerns the target T2, human 11-beta HSD2 (Homo sapiens, UniProt P80365).
T2 construct: made in house; host or cells: E. coli
T2 sequence (P80365 1-405): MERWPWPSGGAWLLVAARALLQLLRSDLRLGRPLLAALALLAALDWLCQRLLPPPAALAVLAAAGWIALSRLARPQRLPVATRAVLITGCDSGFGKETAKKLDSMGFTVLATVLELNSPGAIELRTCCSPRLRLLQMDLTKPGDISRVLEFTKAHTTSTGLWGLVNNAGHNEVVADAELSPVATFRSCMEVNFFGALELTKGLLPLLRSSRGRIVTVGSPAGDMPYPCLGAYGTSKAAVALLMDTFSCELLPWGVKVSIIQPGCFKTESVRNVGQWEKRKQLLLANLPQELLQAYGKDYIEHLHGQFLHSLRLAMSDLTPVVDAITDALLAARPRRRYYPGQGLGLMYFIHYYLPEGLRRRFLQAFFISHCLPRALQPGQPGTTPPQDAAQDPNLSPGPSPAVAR
Put plainly: 11 beta-HSD2 enzyme assay, human recombinant enzyme. It counts as biochemical. As to conditions: selectivity table, Example 10; read-out: Inhibition of human 11-beta HSD2 IC50. The source says:
This assay was similarly applied to 11beta-HSD2, whereby cortisol, NAD, and carbenoxolon were used as the substrate, cofactor and stopping agent, respectively.

Where [1] appears, read: recombinant enzyme from E. coli.

Chain of mouse 11-beta HSD1 (P50172 whole entry): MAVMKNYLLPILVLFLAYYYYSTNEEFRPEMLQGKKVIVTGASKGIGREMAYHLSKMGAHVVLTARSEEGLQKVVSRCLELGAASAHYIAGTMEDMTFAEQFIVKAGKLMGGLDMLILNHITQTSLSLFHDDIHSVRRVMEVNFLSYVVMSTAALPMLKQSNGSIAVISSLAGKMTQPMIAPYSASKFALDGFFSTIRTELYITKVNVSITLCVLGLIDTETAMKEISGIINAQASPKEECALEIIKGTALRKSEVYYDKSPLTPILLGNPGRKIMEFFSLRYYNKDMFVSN
Chain of rat 11-beta HSD1 (P16232 whole entry): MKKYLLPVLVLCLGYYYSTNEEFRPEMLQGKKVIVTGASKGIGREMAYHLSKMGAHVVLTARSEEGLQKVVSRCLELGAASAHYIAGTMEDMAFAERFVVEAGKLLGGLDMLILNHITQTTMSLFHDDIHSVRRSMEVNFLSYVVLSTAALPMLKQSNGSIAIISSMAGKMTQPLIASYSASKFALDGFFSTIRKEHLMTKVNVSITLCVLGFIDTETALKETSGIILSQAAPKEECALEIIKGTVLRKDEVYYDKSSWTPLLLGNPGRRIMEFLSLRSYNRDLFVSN
T1 sequence (P28845 whole entry): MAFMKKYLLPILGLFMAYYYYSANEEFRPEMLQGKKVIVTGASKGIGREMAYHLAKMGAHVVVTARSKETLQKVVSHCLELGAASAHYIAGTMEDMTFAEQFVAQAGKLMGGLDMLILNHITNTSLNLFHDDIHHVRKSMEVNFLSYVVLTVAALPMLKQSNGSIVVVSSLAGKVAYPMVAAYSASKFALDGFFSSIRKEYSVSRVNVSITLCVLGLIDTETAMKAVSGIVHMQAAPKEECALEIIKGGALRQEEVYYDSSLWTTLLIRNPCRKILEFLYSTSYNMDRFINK
Protocol for human 11-beta HSD1: (§1) Human recombinant 11 beta-hydroxysteroid dehydrogenase type 1 (11 beta-HSD1) and type 2 (11 beta-HSD2) enzymes were expressed in E. coli. Rat and mice liver microsome fractions were purchased from TEBU.
(§2) The 11 beta-HSD1 enzyme assay was carried out in 96 well microtiter plates in a total volume of 100 μl containing 30 mM HEPES buffer, pH 7,4 with 1 mM EDTA, substrate mixture cortisone/NADPH (200 nM/200 μM), G-6-P (1 mM) and inhibitors in serial dilutions. Reactions were initiated by addition of 10 μl 11beta-HSD1 (3 μg) from E. coli, either as microsome fractions from rat or mice liver (2.5 μg). Following mixing, the plates were shaken for 150 minutes at 37° C. The reactions were terminated with 100 Acid-18beta glycyrrhetinic stop solution. Determinations of cortisol levels in 11 beta-HSD1 preparations were monitored by HTRF (HTRF cortisol assay from C is bio international).
Protocol for mouse 11-beta HSD1: as §1, §2
Protocol for rat 11-beta HSD1: as §1, §2

For `COc1ccc(NC(=O)NC2C3CC4CC(C3)CC2C4)c(C)c1` (centres unmarked) [Ex 1, 1-Adamantan-2-yl-3-(4-methoxy-2-methyl-phenyl)-urea], the melting point (usually the temperature, or range, at which the solid turns liquid) was 186 °C. Moreover, the IC50 (in general, the point on the concentration scale where inhibition reaches its midpoint) at mouse 11-beta HSD1 was found to be 97 nM. Moreover, the IC50 on human 11-beta HSD1 (setting [1]) amounted to 15 nM. Moreover, the half-inhibitory concentration (IC50) on rat 11-beta HSD1 was 190 nM.
Turning to `O=C(Nc1ccccc1C(F)(F)F)NC1C2CC3CC(C2)CC1C3` (centres unmarked) [Ex 1-3, 1-Adamantan-2-yl-3-(2-trifluoromethyl-phenyl)-urea], the IC50 at human 11-beta HSD1 (setting [1]) was 340 nM.
Still for that read-out and setting: under `COc1cc(NC(=O)NC2C3CC4CC(C3)CC2C4)cc(OC)c1` (centres unmarked) [Ex 1-7, 1-Adamantan-2-yl-3-(3,5-dimethoxy-phenyl)-urea] stands 270 nM.
Consider `O=C(NCCc1ccccc1)NC1C2CC3CC(C2)CC1C3` (centres unmarked) [Ex 1-12, 1-Adamantan-2-yl-3-phenethyl-urea], for which the IC50 against mouse 11-beta HSD1 came out at 440 nM; on human 11-beta HSD1 (setting [1]), 430 nM; on rat 11-beta HSD1, 8 nM.
Consider `O=C(NCCc1cccs1)NC1C2CC3CC(C2)CC1C3` (centres unmarked) [Ex 1-16, 1-Adamantan-2-yl-3-(2-thiophen-2-yl-ethyl)-urea], for which, at human 11-beta HSD1 (setting [1]), the IC50 amounted to 43 nM.
The same measure, in the same setting: under `CCc1cccc(NC(=O)NC2C3CC4CC(C3)CC2C4)c1` (centres unmarked) [Ex 1-20, 1-Adamantan-2-yl-3-(3-ethyl-phenyl)-urea] stands 67 nM; under `O=C(Nc1ccc2ccccc2c1)NC1C2CC3CC(C2)CC1C3` (centres unmarked) [Ex 1-23, 1-Adamantan-2-yl-3-naphthalen-2-yl-urea], 57 nM; under `O=C(Nc1cc(Cl)nc(Cl)c1)NC1C2CC3CC(C2)CC1C3` (centres unmarked) [Ex 1-26, 1-Adamantan-2-yl-3-(2,6-dichloro-pyridin-4-yl)-urea], 670 nM.
The same measure, in the same setting: under `Cc1cccc(CNC(=O)NC2C3CC4CC(C3)CC2C4)c1` (centres unmarked) [Ex 1-34, 1-Adamantan-2-yl-3-(3-methyl-benzyl)-urea] stands 740 nM.
Take `O=C(NC1CCCC1)NC1C2CC3CC(C2)CC1C3` (centres unmarked) [Ex 1-39, 1-Adamantan-2-yl-3-cyclopentyl-urea]: the IC50 at mouse 11-beta HSD1 stood at 355 nM; at human 11-beta HSD1 (setting [1]), 370 nM; at rat 11-beta HSD1, 47 nM.
With `O=C(NCc1ccco1)NC1C2CC3CC(C2)CC1C3` (centres unmarked) [Ex 1-44, 1-Adamantan-2-yl-3-furan-2-ylmethyl-urea], the values for the IC50 at mouse 11-beta HSD1 and on human 11-beta HSD1 (setting [1]) were 3440 nM and 2100 nM, respectively.
On to `C[C@@H](NC(=O)NC1C2CC3CC(C2)CC1C3)c1ccccc1` (stereo partly drawn) [Ex 1-61, 1-Adamantan-2-yl-3-((R)-1-phenyl-ethyl)-urea], for which the half-maximal inhibitory concentration (IC50) on human 11-beta HSD1 (setting [1]) was determined as 16 nM.
Turning to `O=C(NC1C2CC3CC(C2)CC1C3)N1CCCC1` (centres unmarked) [Ex 3-3, Pyrrolidine-1-carboxylic acid adamantan-2-ylamide], the IC50 turned out to be 720 nM at human 11-beta HSD1 (setting [1]) and 1320 nM at rat 11-beta HSD1.
On to `Cc1c(NC(=O)NC2C3CC4CC(C3)CC2C4)cccc1C(=O)O` (centres unmarked) [Ex 6, 3-(3-Adamantan-2-yl-ureido)-2-methyl-benzoic acid], for which the IC50 at human 11-beta HSD1 (setting [1]) was 550 nM.
In turn, `Cc1cc(O)ccc1NC(=O)NC1C2CC3CC(C2)CC1C3` (centres unmarked) [Ex 7, 1-Adamantan-2-yl-3-(4-hydroxy-2-methyl-phenyl)-urea] gave a melting point of 212 to 214 °C.
`Cc1cc(OCCN2CCCCC2)ccc1NC(=O)NC1C2CC3CC(C2)CC1C3` (centres unmarked) [Ex 8, 1-Adamantan-2-yl-3-(2-methyl-4-(2-piperidin-1-yl-ethoxyl)phenyl)-urea]: the IC50 at mouse 11-beta HSD1 (read-out: Inhibition of mouse 11-beta HSD1 IC50, mice liver microsome fractions) turned out to be 1240 nM; at rat 11-beta HSD1, 1460 nM.
Take `COc1ccc(NC(=O)NC2C3CC4CC(C3)CC2C4)c(C)c1` (centres unmarked) [drawing 13]: the IC50 is 12 nM at human 11-beta HSD1 (selectivity table, Example 10) and more than 10000 nM at human 11-beta HSD2.
For `O=C(NC1CCCC1)NC1C2CC3CC(C2)CC1C3` (centres unmarked) [drawing 14] the same measures were 370 nM and more than 10000 nM.
The corresponding values for `C[C@@H](NC(=O)NC1C2CC3CC(C2)CC1C3)c1ccccc1` (some centres unmarked) [drawing 15] are 16 nM and more than 10000 nM.
